How the values were obtained:
[1] = test system: ALD-KO mouse-mixed glial cells; experiment: Hexacosanoic acid (VLCFA) level in ALD-KO mouse mixed glial cells; assay type: cell-based; conditions: 25 μM, FIG. 3
Experimental: The inventors carried out a study of the measurement of VLCFA accumulation in AMN mouse-mixed glial cells when they are not undergoing any treatment and when they are treated with PXL770 at different doses.
C57BL6 mouse breeding pairs were purchased from Jackson Laboratory (Bar Harbor, ME) and maintained at the Henry Ford Health System (HFHS) animal facility. All animal procedures were approved by the HFHS Animal Review Committee and all animals received humane care in compliance with the HFHS experimental guidelines and the National Research Council's criteria for humane care (Guide for Care and Use of Laboratory Animals). Mouse with Abcd1 gene knocked-out were raised and used to extract mixed glial cells. Primary astrocyte-enriched cultures were prepared from the whole cortex of 1-day-old C57BL/6 mice. Briefly, the cortex was rapidly dissected in ice-cold calcium/magnesium-free HBSS at pH 7.4 as described previously. The tissue was minced, incubated in HBSS containing trypsin (2 mg/ml) for 20 min, and washed twice in plating medium containing 10% FBS and 10 μg/ml gentamicin and then disrupted by triturating through a Pasteur pipette, after which cells were seeded in 75-cm^2 culture flasks (Falcon, Franklin, NJ). […]
Hexacosanoic acid level in six groups of mixed glial cells was measured. […]

[2] = test system: ALD patient-derived lymphocytes; experiment: Hexacosanoic acid (VLCFA) level in ALD patient-derived lymphocytes; assay type: cell-based, human
Experimental: After studies on cells from patients with the […] of ALD (AMN) the inventors replicated the same study method as in example 1 to analyze the effect of PXL770 on cells from X-ALD patients (severe inflammatory phenotype).
The experiments described in Examples 3 and 7 were performed with metformin by the same lab and described by Singh et al. in Journal of Neurochemistry, 2016; 138, 86-100.

ABCD2 = experiment: Western blot of ABCD2 expression in ALD patient fibroblasts; assay type: cell-based, human; conditions: especially at low concentration (5 μM), FIG. 6
Experimental: The experiments described in Examples 4 and 6 were performed with metformin by the same lab and described by Singh et al. in Journal of Neurochemistry, 2016; 138, 86-100.

ABCD1-KO mice [3] = experiment: In vivo X-ALD mouse, 60 days: VLCFA (C26:0) in brain cortex and plasma; conditions: male ABCD1-KO mice, 75 mg/kg oral gavage twice a day
Experimental: (§1) Male ABCD1-KO mice (n=15) were treated with oral gavage of PXL770 (75 mg/kg) twice a day, every day for 60 days. Untreated ABCD1-KO mice (n=15) and wild-type (WT) mice (n=12) served as controls. Post-treatment mice were sacrificed and brain cortex and plasma were collected for VLCFA analysis. The analysis was performed according to the standardized protocols of the Lipidomics Core Facility and data are expressed as VLCFA μg/ml levels. Hexacosanoic acid (C26:0) was selected as representative for VLCFAs.
A one-way ANOVA with Dunnett's multiple comparison test was performed to assess the effect of PXL770 on brain's VLCFAs (**** p<0.0001, *** p<0.001). A Kruskal-Wallis test with Dunn's multiple comparison test was performed to assess the effect of PXL770 on plasma's VLCFAs (**** p<0.0001, […]).

ABCD1-KO mice [4] = experiment: In vivo X-ALD mouse, 90 days: VLCFA (C26:0) in spinal cord; conditions: male ABCD1-KO mice, 75 mg/kg oral gavage twice a day, FIG. 13
Experimental: as §1, with “(n=8)” for “(n=15)”, “90” for “60”, “(n=8)” for “(n=12)”, “spinal cord was” for “brain cortex and plasma were”

[5] = ALD lymphocytes, increasing concentrations, FIG. 5

Compound: O=c1[nH]c2sc(Cl)c(-c3ccc4c(c3O)CCCC4)c2c([O-])c1-c1ccccc1.[K+] [PXL770, monohydrate potassium salt of 2-chloro-4-hydroxy-3-(5-hydroxytetralin-6-yl)-5-phenyl-7H-thieno[2,3-b]pyridin-6-one]
- accumulation of hexacosanoic acid [1]: decreases
- level of hexacosanoic acid [2, 5]: decreases
- level of hexacosanoic acid compared to healthy controls [2, 5]: same level as that present in lymphocytes of healthy controls
- VLCFA content, normalization ([2]; ALD patient cells, 5 μM): normalization effect
- expression of ABCD2 (Western blot) (ABCD2): overexpression
- VLCFA accumulation in the brain cortex (ABCD1-KO mice [3]; FIG. 7): significantly reduces
- VLCFA accumulation in the plasma (ABCD1-KO mice [3]; FIG. 8): significantly reduces
- VLCFA accumulation in the spinal cord (ABCD1-KO mice [4]): significantly reduces

From patent publication US11850238B2, “Use of a thienopyridone derivative in the treatment of adrenoleukodystrophy or adrenomyeloneuropathy” (POXEL, priority 2020, dated 2023)
